Measurements as given in patent US20220409510A1, “Polypeptides And Methods For Improving Skin Conditions” (Interk Peptide Therapeutics Limited, priority 2018, published 2022).
Non-standard residues stand in square brackets, D forms with d. No end group written: not given here.

How the values were obtained:
[1] = system: wound (skin punch, ID 12 mm); experiment: Murine wound model, percentage closure of the wound; type: in vivo, ICR mice; conditions: topical 10 ug per mouse daily for 10 consecutive days
From the text: FIGS. 1 and 2 illustrate the effect of polypeptides IK34720 (SEQ ID NO: 3—RSKAKNPLYRRRRRRRRR) (FIG. 1) and the dextro-reverso sequence IK236770 (SEQ ID NO: 4—rrrrrrrrrylpnkaksr) (FIG. 2), on wound healing over 10 days in a murine wound model in accordance with the following protocol.
Three groups of 8 male ICR mice with a mean weight of 22 g (±2 g) were used in the present study. The animals were housed in individual cages during the study. Under isoflurane gas anaesthesia, the shoulder and back region of each animal was shaved and a sharp punch (ID 12 mm) was used to induce a wound by removing the skin, including panniculus carnosus and adherent tissues on Day 1.
Following induction of the wound the polypeptides IK34720 and IK236770 were topically administered to the site of the wound at a dosage of 10 μg per animal. […] An additional group which comprised the administration of Phosphate buffered Saline (PBS) at pH 7.4 was used as a negative control.
The wound healing was analysed on Days 5, 7, 9 and 11 by tracing the periphery of the wound onto clear plastic sheets with the wound area calculated by an Image analyzer ProPlus (Media Cybernetics, Version 4.5.0.29. The percentage closure of the wound (%) was calculated. Percentage closure of the wound was determined on 5, 7, 9 and 11. ANOVA and Dunnett's test were applied to test significant significance between the treated groups (peptide and positive control groups) and the negative control group at each time point of measurement. Differences were considered statistically significant at P<0.05, and are indicated by *.

[2] = system: dermal fibroblasts; experiment: TBARS lipid peroxidation assay in UV irradiated dermal fibroblasts; type: cell-based; conditions: highest concentration (5 μM) of peptide; FIG. 19
Description: The ability of the polypeptide RSKAKNPLYRRRRRRRRR to alter UV-induced oxidative damage of cell-derived lipids was examined using the TBARS thiobarbituric acid-reactive substances (TBARS) lipid peroxidation assay.
After irradiation or sham-irradiation of dermal fibroblasts, supernatants (900 μL) were collected. In brief, 90 μL of butylated hydroxytoluene (2% w/w in ethanol) was added and samples kept frozen (−20° C.) until the TBARS assay. Petri dishes were washed twice with 1 mL of HBSS, cells scraped in 600 μL of water and 60 μL of 0.5% aqueous Triton X100 added to this solution, for protein determination carried out by the Lowry method (Lowry OH et al, J. Biol. Chem., 1951, 193:265-275). TBARS were fluorometrically assayed as described (Morlière P et al, Biochim. Biophys. Acta, 1991, 1084:261-268). Briefly, thawing samples were heated in the presence of thiobarbituric acid in acidic conditions, and TBARS extracted with 1-butanol and fluorometrically quantified (λexc=515 nm and λem=550 nm). Tetraethoxypropane, which quantitatively yields the malondialdehyde-thiobarbituric acid adduct in the assay conditions, was used for calibration. TBARS values, expressed in malondialdehyde (MDA) equivalents, were normalized to the cell protein for each Petri dish. Each TBARS determination was performed in triplicate (e.g., with three Petri dishes per data point).

[3] = system: MMP1; experiment: MMP1 expression in human skin explants after UV-irradiation (immunohistochemistry); type: cell-based; conditions: 3 hrs post irradiation/treatment; Calcitriol 1 nM; IK34720 50, 250 or 500 uM; FIG. 17
Description: The effect of the polypeptide IK34720 (SEQ ID NO: 3) on MMP-1 activity in human skin was evaluated using the following protocol.
FIGS. 17 and 18 illustrate the effect of the polypeptide IK34720 (SEQ ID NO: 3) on MMP1 expression, in accordance with the following protocol.
Human skin (2× human explant tissues) removed at elective surgery was cleaned, dissected and cut into pieces of approx. 5mm×5mm. Each piece was placed in a well of a 96 well plate, with individual plates prepared to assess the effects 3 hrs post treatment. Skin was subjected to UV-radiation from solar-simulated UV source for 1.5 h (UVR), or non-irradiation (SHAM), and treated immediately after with a vehicle control, Calcitriol (1 nM) or the polypeptide IK34720 (SEQ ID NO: 3) at concentrations of 50 μM, 250 μM or 500 uM. In FIG. 17, IK50, IK250 and IK500 as μM concentrations refers to 15 μg, 75 μg and 150 μg of IK34720 per 120 μL culture medium/explant, respectively.
Samples harvested at 3 hrs were fixed, sectioned, immunohistochemically stained for MMP1 and quantified for MMP1 expression, by expressing epidermal area stained for MMP1 as a function of total epidermal area examined.

[4] = system: CPDs in human skin explants; experiment: CPD formation in human skin explants after UV-irradiation; type: cell-based; conditions: 3 hrs post irradiation/treatment; Calcitriol 1 nM; IK34720 50, 250 or 500 uM; FIG. 12
Description: Human skin removed at elective surgery was cleaned, dissected and cut into pieces of approx. 5 mm×5 mm. Each piece was placed in a well of a 96 well plate, with individual plates prepared to assess the effects 3 hrs post treatment. All samples were performed in triplicate for each treatment. Skin was subjected to UV-radiation from solar-simulated UV source for 1.5 h (UVR), or non-irradiation (SHAM). Given that human skin is thicker than mouse skin, human skin explants were exposed to a radiation dose three times higher than that used for mouse skin, i.e., 20 J/cm2 versus 7 J/cm2, respectively, and the output spectrum of the laboratory solar simulator has previously been reported (Rybchyn MS et al, J Invest Dermatol. 2018 May; 138(5):1146-1156) and treated immediately after with a vehicle control, Calcitriol (1 nM) or the polypeptide IK34720 (SEQ ID NO: 3) at concentrations of 50 μM, 250 μM or 500 uM.
Samples harvested at 3 hrs were fixed, section, stained and quantified as described in Example 5.

[5] = biological target: T1, polypeptide IK34720 (RSKAKNPLYRRRRRRRRR)
T1 chain: RSKAKNPLYRRRRRRRRR

Molecule: CCNC(=O)[C@H]1O[C@@H](n2cnc3c(N)nc(NCCc4ccc(CCC(=O)O)cc4)nc32)[C@H](O)[C@@H]1O [CGS-21680, reference compound]
- wound closure percentage ([1]; Day 5 to Day 11, vs negative control (PBS)): increase wound healing compared to the negative control

Molecule: C=C1/C(=C\C=C2/CCC[C@]3(C)[C@@H]([C@H](C)CCCC(C)(C)O)CC[C@@H]23)C[C@@H](O)C[C@@H]1O [Calcitriol, 1,25-dihydroxyvitamin D3, reference compound]
- significant difference in TRS (TBA reactive substances) between Sham and UV irradiation [2]: not seen
- cells staining for MMP-1 [3]: fewer stained cells
- cells having CPDs (stained cells) [4]: fewer stained cells

Molecule: rrrrrrrrrylpnkaksr ([dR][dR][dR][dR][dR][dR][dR][dR][dR][dY][dL][dP][dN][dK][dA][dK][dS][dR]; also: retro-inverso) [IK236770]
- wound healing (wound closure % percentage) ([1]; day 5, vs negative control): statistically significant increase in wound healing

B1: Human rheumatoid synovial fibroblast MMP-1 proenzyme, activated with APMA (protein)
chain: FVLTEGNPRWEQTHLTYRIENYTPDLPRADVDHAIEKAFQLWSNVTPLTFTKVSEGQADIMISFVRGDHRDNSPFDGPGGNLAHAFQPGPGIGGDAHFDEDERWTNNFREYNLHRVAAHELGHSLGLSHSTDIGALMYPSYTFSGDVQLAQDDIDGIQAIYGRSQNPVQPIGPQTPKACDSKLTFDAITTIRGEVMFFKDRFYMRTNPFYPEVELNFISVFWPQLPNGLEAAYEFADRDEVRFFKGNKYWAVQGQNVLHGYPKDIYSSFGFPRTVKHIDAALSEENTGKTYFFVANKYWRYDEYKRSMDPGYPKMIAHDFPGIGHKVDAVFMKDGFFYFFHGTRQYKFDPKTKRILTLQKANSWFNCRKN
- MMP-1 activity in vitro: amount of Mca-Pro-Leu-Gly formed from the fluorogenic substrate Mca-Pro-Leu-Gly-Leu-Dap-Ala-Arg, read spectrofluorimetrically at 340 nm/400 nm [5]: inhibits MMP-1 activation in a dose dependent manner
